Results reported in article PMC12441861, “Next-Generation Lipid Prodrugs Orally Deliver Tenofovir via Enhanced Chylomicron Incorporation” (ACS Pharmacology & Translational Science, 2025).
Where two headings read alike, the source gives them in different places.

What was measured:
[1] = tested on: Caco-2 cell-derived CMs; format: in vitro ADME, human; settings: 10 μM test drug, Caco-2 cells
Procedure: [formula] 1 Chylomicron (CM) Isolation and Drug Quantification Methods ^a a (1) Caco-2 cells were grown to confluence. (2) Lipid mix was added to media (final drug concentration of 10 μM), and cells were incubated for 4 h. (3) Cells were washed 3× with PBS. (4) Cells were incubated in fresh media overnight. (5) CM-containing media was collected. (6) Media was combined with a 1.20 g/mL NaCl solution in an ultracentrifugation tube, 500 μL H2O was carefully layered on top, and the mixture was centrifuged at 10,950 RCF for 3 h. (7) The CM-containing upper layer was carefully isolated with a fine-tip pipette. (8) Test drug was then extracted from the CM layer with 70% ACN and quantified using LC-MS/MS.
With the presence of CMs in isolated Caco-2 cell extracts confirmed and reproducibility validated across replicates and different drugs, we were eager to investigate drug incorporation during CM biogenesis in vitro. Accordingly, we added test compound (Figure ) to differentiated Caco-2 cells along with the lipid mix to a final test drug concentration of 10 μM. While 10 μM was selected as a standard concentration for these studies, higher concentrations could allow detection of other compounds with low CM association in future experiments. In either case, CMs secreted by Caco-2 cells can be isolated postincubation, and drug concentrations within CMs can be assessed using highly sensitive LC-MS/MS methodology. Positive (high c Log D) and negative (low c Log D) control compounds were selected to validate this assay. […] Given these properties, we expected CAB to readily package into CMs in vitro. […]. […] This sets the stage for quantitative comparisons of TXL and its functionalized analogs, which are detailed below.
At 14-days postconfluence, Caco-2 cells were incubated in a lipid mixture to induce secretion of CMs. For the lipid solution, oleic acid (50 mg), lecithin (40 mg), and sodium taurocholate (48 mg) were weighted out into an Eppendorf tube, and the volume was brought up to 900 μL with PBS, followed by vigorous vortexing to ensure sample homogeneity. This 100× lipid mixture was then diluted into growth media to achieve the desired concentrations (2 mM oleic acid, 1.36 mM lecithin, 1 mM sodium taurocholate) by adding 500 μL of the lipid mixture to 49.5 mL of media. The lipid-supplemented media was thoroughly mixed and sterilized by filtration using a 250 mL sterile vacuum filter. For the drug-exposed CM experiments, each test compound was dissolved in 2 mM human serum albumin (HAS, Sigma, essentially fatty acid free) in DPBS, then added to 10 mL aliquots of lipid-containing media to achieve a final concentration of 10 μM. Subsequently, lipid-containing media was added to Caco-2 cells and incubated for 4 h at 37 °C. After incubation, cells were washed twice with PBS then incubated for 4, 8, or 20 h at 37 °C in fresh, colorless growth medium. Media was collected into 15 mL falcon tubes and centrifuged at 2000g to remove cell debris. Postcentrifugation, the supernatant was transferred to 50 mL Nalgene Oak Ridge High-Speed PPCO Centrifuge Tubes. Next, to adjust the density for ultracentrifugation, 1.19 g of NaCl in 2 mL of deionized (DI) H2O were added to reach a final volume of 5 mL, corresponding to a density of 1.20 g/mL. This mixture was dissolved by vortexing and balanced by weight. 500 μL of DI H2O was carefully overlaid onto the mixture. Ultracentrifugation was performed for 2 h and 30 min at 10,920 relative centrifugal force (RCF). Immediately after centrifugation, the top 500 μL layer, containing CMs, was carefully collected using a gel-loading pipet tip.
To an aliquot of CM extract was added an equal volume of ACN into 1.5 mL Eppendorf tubes. Tubes were shaken for 1 h at rt then centrifuged at 15,000 RCF to remove debris. The clear supernatant was transferred to a glass vial and concentrated under reduced pressure to yield a dry solid. Sample was then reconstituted in 70% ACN in H2O, filtered and then analyzed. […]

[2] = cited from earlier work
[3] = cited from earlier work; remark: listed apart in the source
[4] = Cytotoxicity, MTT assay; settings: human, TZM-bl cells
Procedure: To measure cytotoxicity, HeLa-derived TZM-bl cells , were treated with serial dilutions of each drug, and viability was assessed after 48 h. Two methods were used: an ATP luminescence assay, which measures cellular ATP levels as an indicator of metabolic activity (compounds 8a–d), and an MTT assay, which evaluates cell viability via mitochondrial enzymatic activity (compounds 15b, 21a, and 21b).
The TZM-bl cell line (BEI Resources, ARP-8129) was used to evaluate both cell viability and HIV pseudovirus infectivity reduction. Cytotoxicity in this cell line was measured via two methods. The first method, an ATP luminescence assay, was used for compounds 15a, 15b, 21a, and 21b as such: 6000 TZM-bl cells per well were seeded in a 96-well plate and incubated at 37 °C with 5% CO2 for 24 h. Compounds were prepared as serial dilutions (final concentrations of 1, 0.2, 0.04, 0.008, and 0.0016 μM) in complete DMEM with DEAE-Dextran at 40 μg/mL to mimic HIV infectivity conditions. Solutions were added to the cells and incubated for another 48 h. Viability was assessed using the Promega Cell Titer Glow (CTG) Assay (cat No. G9242) by adding a 50% PBS-CTG solution to each well and measuring luminescence, which correlates with ATP levels, on an Agilent BioTek Synergy HT reader. Cytotoxicity of compounds 8a–d was determined using a colorimetric assay based the conversion of MTT (3-(4,5-dimethylthiazol-2-yl)-2,5-diphenyltetrazolium bromide) to formazan as described previously. TZM-bl cells were plated into 96-well tissue culture plates 1 day prior to performing the MTT assay. A series of 10 3-fold dilutions of each compound was performed from a starting concentration of 10 mM and each dilution was tested for a reduction in cell viability according to the manufacturer’s instructions (CyQuant MTT Cell Viability Assay, ThermoFisher, V13154). Wells containing TZM-bl cells with media only were used as a control. Briefly, serial dilutions of each test compound were added to the plated TZM-bl cells. At 48 h, the media was removed and replaced with 100 mL of fresh culture medium. 10 mL of 12 mM MTT solution was added to each well and incubated at 37 °C for 4 h. 85 mL of supernatant was then removed from each well and replaced with 50 mL of DMSO. Following a 10 min incubation at 37 °C, the absorbance of each well was determined at 540 nm using a Biotek Synergy Neo2 multimode reader and Gen5 v3.02 software.

[5] = Metabolic stability in human liver microsomes; format: in vitro ADME; settings: pH 7.4, read-out: Metabolic Stability HLM t1/2
Procedure: Assays employed human liver microsomes (HLMs, 20 mg/mL) from Xenotech. A 10 mM NADPH stock was prepared in deionized H2O, and test compounds were dissolved in 100% MeOH to a final concentration of 10 mM. The stock solutions were diluted to 500 μM in 100 mM potassium phosphate buffer (pH 7.4), keeping the final MeOH concentration below 0.2%. Reaction mixtures were prepared by combining 928 μL phosphate buffer, 55 μL liver microsomes, and the test compound solution to a final concentration of 3 μM. Verapamil was used as a positive control. The reactions were initiated with the addition of 110 μL of 10 mM NADPH. Aliquots were taken in duplicate at 0, 5, 10, 15, and 30 min, quenched with 100 μL of cold MeOH containing 2 μM internal standard (d 5-7-ethoxy coumarin), and centrifuged at 12,000 RCF for 5 min. The supernatants were then transferred to LC-MS vials for analysis. The average of each duplicate was normalized to the 0 min time point, representing 100% remaining (0% metabolism).

## CO[C@H]1C(=O)[C@]2(C)[C@@H](OC)C[C@H]3OC[C@@]3(OC(C)=O)[C@H]2[C@H](OC(=O)c2ccccc2)[C@]2(O)C[C@H](OC(=O)[C@H](O)[C@@H](NC(=O)OC(C)(C)C)c3ccccc3)C(C)=C1C2(C)C [CAB, Cabazitaxel, reference compound]
[1]
  detection of compound in CM extract by LC-MS/MS: presence

## CCCCCCCCCCCCCCCC(=O)OCC(COC(=O)CCCCCCCCCCCCCCC)OC(=O)CC(C)CC(=O)OCOC1CCC2C3CCC4=CC(=O)CCC4(C)C3CCC12C (stereo not shown) [Testosterone-ASI-C5-βMe-TG]
[2]; ref Hu 2016
  orally-dosed drug recovered in mesenteric lymph: 28% orally-dosed drug recovered in mesenteric lymph (0% for parent)
[3]; parent Testosterone, ref Hu 2016
  Δ Oral Availability (% versus Parent): 90%

## CCCCCCCCCCC(=O)O[C@H]1CC[C@H]2[C@@H]3CCC4=CC(=O)CC[C@]4(C)[C@H]3CC[C@]12C [Testosterone Undecanoate (TU), Testosterone Undecanoate]
[2]; oral administration, ref not printed in text (Table 1: Shackleford 2003)
  lymphatic transport as share of systemic availability: 91.5–99.7%
[3]; parent Testosterone, ref Shackleford 2003
  Δ Oral Availability (% versus Parent): 7%

## CCCCCCCCCCCCCCCCOC[C@@H](COP(=O)(O)CO[C@H](C)Cn1cnc2c(N)ncnc21)OCc1ccccc1 [8a, Ammonium[(1R)-2-(6-aminopurin-9-yl)-1-methyl-ethoxy]methyl-[(2S)-2-benzyloxy-3-hexadecoxy-propoxy]phosphinate]
[4]
  CC50 at 48 h: > 10 µM
[5]
  half-life at 3 µM: > 2 h

## CCCCCCCCCCCCCCCCCCOC[C@@H](COP(=O)(O)CO[C@H](C)Cn1cnc2c(N)ncnc21)OCc1ccccc1 [8b, Ammonium[(1R)-2-(6-aminopurin-9-yl)-1-methyl-ethoxy]methyl-[(2S)-2-benzyloxy-3-octadecoxy-propoxy]phosphinate]
[4]
  CC50 at 48 h: > 10 µM
[5]
  half-life at 3 µM: > 2 h

## CCCCCCCCCCCCCCCCOC[C@H](COP(=O)(O)CO[C@H](C)Cn1cnc2c(N)ncnc21)OCc1ccccc1 [8c, Ammonium[(1R)-2-(6-aminopurin-9-yl)-1-methyl-ethoxy]methyl-[(2R)-2-benzyloxy-3-hexadecoxy-propoxy]phosphinate]
[4]
  CC50 at 48 h: > 10 µM
[5]
  half-life at 3 µM: > 2 h

## CCCCCCCCCCCCCCCC(=O)OCC(COC(=O)CCCCCCCCCCCCCCC)OC(=O)CCCSSCCCC(=O)O[C@@H](C(=O)O[C@H]1C[C@@]2(O)[C@@H](OC(=O)c3ccccc3)[C@@H]3[C@]4(OC(C)=O)CO[C@@H]4C[C@H](O)[C@@]3(C)C(=O)[C@H](O)C(=C1C)C2(C)C)[C@@H](NC(=O)OC(C)(C)C)c1ccccc1 [DTX-S-S-TG]
[2]; ref Tian 2019
  Evidence of Lymphatic Uptake: Cycloheximide inhibition reduces lymphatic transport and prodrug bioavailability
[3]; parent Docetaxel, ref Tian 2019
  Δ Oral Availability (% versus Parent): 44%

## C[C@]12CC[C@H]3[C@@H](CCC4=CC(=O)CC[C@@]43C)[C@@H]1CC[C@@H]2O [Testosterone]
[2]; in vivo, po
  orally-dosed drug recovered in mesenteric lymph: 28% orally-dosed drug recovered in mesenteric lymph (0% for parent)

## CN(C)C(=N)N=C(N)N [MET, metformin, reference compound]
[1]
  detection of compound in CM extract by LC-MS/MS: absence

## CCCCCCCCCCCCCCCCCCCC(=O)OCC(COP(=O)([O-])OCC[N+](C)(C)C)OC(=O)C(CCC)CCC (stereo not shown) [DP-VPA]
[2]; ref Dahan 2008
  orally-dosed drug recovered in mesenteric lymph: 60% orally-dosed drug recovered in mesenteric lymph
[3]; parent Valproic Acid, ref Dahan 2008
  Δ Oral Availability (% versus Parent): 9%

## CCCCCCCCCCCCCCCC(=O)OCC(COC(=O)CCCCCCCCCCCCCCC)OC(=O)CC(C)CC(=O)Oc1cc(C)cc(C)c1C(C)(C)CC(=O)Oc1ccc2c3c1O[C@H]1[C@@]4(OC)CC[C@@]5(C[C@@H]4[C@](C)(O)C(C)(C)C)[C@@H](C2)N(CC2CC2)CC[C@]315 (stereo partly shown) [BUP-TML-C5βMe-TG]
[2]; within 6 h, ref Quach 2022
  oral dose recovered in mesenteric lymph: 44.7% oral dose recovered in mesenteric lymph within 6 h
[3]; parent Buprenorphine, ref Quach 2022
  Δ Oral Availability (% versus Parent): 83%
